According to US20190151341A1, “APPLICATION OF TENVERMECTIN FOR PREVENTING AND TREATING PARASITE INFECTION” (ZHEJIANG HISUN PHARMACEUTICAL CO., LTD., priority 2016, published 2019):

Tested on: allogynogenetic crucian carp
Experiment: Toxicity to allogynogenetic crucian carp, semi-static method, 96 hours
Assay type: in vivo
Conditions: allogynogenetic crucian carp
Text: Test fish and water: allogynogenetic crucian carp was purchased from Taowang Farm in Jiaojiang District, Taizhou City, with a body length of (9.60±0.52) cm and a body weight of (28.22±3.44) g. The healthy and vigorous fish with the same size were selected and temporarily raised in an indoor aquarium. They were domesticated for 7 days indoors before the test. The natural mortality rate was zero.
99.4% Tenvermectin A (the mass content of tenvermectin B was 0.02%) (Zhejiang Hisun Pharmaceutical Co., Ltd.);
Tenvermectin (the mass ratio of tenvermectin A/tenvermectin B was 95/5) (Zhejiang Hisun Pharmaceutical Co., Ltd.);
Tenvermectin (the mass ratio of tenvermectin A/tenvermectin B was 90/10) (Zhejiang Hisun Pharmaceutical Co., Ltd.);
Tenvermectin (the mass ratio of tenvermectin A/tenvermectin B was 85/15) (Zhejiang Hisun Pharmaceutical Co., Ltd.);
99.1% Tenvermectin B (the mass content of tenvermectin A was 0.51%) (Zhejiang Hisun Pharmaceutical Co., Ltd.);
92% Avermectin (Zhejiang Qianjiang Biochemical Co., Ltd.);
96% Ivermectin (Zhejiang Hisun Pharmaceutical Co., Ltd.);
90% Methylamino avermectin benzoate (Emamectin benzoate) (Zhejiang Shenghua Biok Biotechnology Co., Ltd.).
Method: semi-static method. […]

| SMILES | Survival condition (survival rates/%) (0.5 ppm, 8 h) | Survival condition (survival rates/%) (0.5 ppm, 24 h) | Survival condition (survival rates/%) (0.5 ppm, 48 h) | Survival condition (survival rates/%) (0.5 ppm, 72 h) | Survival condition (survival rates/%) (1.0 ppm, 8 h) | Survival condition (survival rates/%) (1.0 ppm, 24 h) | Survival condition (survival rates/%) (2.0 ppm, 8 h) | Survival condition (survival rates/%) (2.0 ppm, 24 h) | Survival condition (survival rates/%) (0.5 ppm, 96 h) | Survival condition (survival rates/%) (1.0 ppm, 48 h) | Survival condition (survival rates/%) (1.0 ppm, 72 h) | Survival condition (survival rates/%) (1.0 ppm, 96 h) | Survival condition (survival rates/%) (2.0 ppm, 48 h) | Survival condition (survival rates/%) (2.0 ppm, 72 h) | Survival condition (survival rates/%) (2.0 ppm, 96 h) | toxicity grade according to LC50 (96-hour LC50) |
| --- | --- | --- | --- | --- | --- | --- | --- | --- | --- | --- | --- | --- | --- | --- | --- | --- |
| CC[C@H]1O[C@]2(CC[C@@H]1C)C[C@@H]1C[C@@H](C/C=C(\C)[C@@H](O[C@H]3C[C@H](OC)[C@@H](O[C@H]4C[C@H](OC)[C@@H](O)[C@H](C)O4)[C@H](C)O3)[C@@H](C)/C=C/C=C3\CO[C@@H]4[C@H](O)C(C)=C[C@@H](C(=O)O1)[C@]34O)O2 [Tenvermectin B, tenvermectin B] | 100% | 80% | 33% | 0% | 75% | 3% | 20% | 0% |  |  |  |  |  |  |  |  |
| COC1CC(OC2C(C)OC(OC3C(C)=CCC4CC(CC5(CCC(C)C(C)O5)O4)OC(=O)C4C=C(C)C(O)C5OCC(=CC=CC3C)C45O)CC2OC)OC(C)C1O (stereo not drawn) [Tenvermectin A, tenvermectin A] | 100% | 100% | 100% | 100% | 100% | 100% | 100% | 100% | 100% | 100% | 100% | 100% | 100% | 100% | 100% | low toxic |
